Assay results reported in patent US8148392B2, “2-indolyl imidazo [4,5-d] phenanthroline derivatives and their use in the treatment of cancer” (Lorus Therapeutics Inc., priority 2005, dated 2012).

system: human colon carcinoma HT-29 cells; assay: XTT cell proliferation assay, HT-29; assay type: cell-based; conditions: HT-29, XTT, as Example 13, Table 7
Description: The ability of compounds of Formula I to inhibit the proliferation of human colon carcinoma HT-29 cells was tested as follows. HT-29 colon carcinoma cells used in this example and subsequent examples were maintained as a monolayer in a growth medium; McCoy's 5A modified medium (Sigma, St. Louis, Mo.), supplemented with 2 mM L-glutamine (Gibco, Grand Island, N.Y.), 10% fetal bovine serum (FBS) (Multicell, WISENT Inc. St-Bruno, QC), antibiotic-antimycotic (Multicell), at 37° C. in a 5% CO2-humidified incubator. Cells were transferred onto 150 mm tissue culture plates and grown until sub-confluency (70-80%) prior to their use. The in vitro antiproliferative activity of compounds was evaluated by incubating the cells with varying concentrations of the compounds as shown in Table 1 for 6-7 days. The efficacy of these compounds in this cell proliferation assay was measured based in the ability of live cells to reduce the tetrazolium salt XTT to orange colored compounds of formazan (XTT cell proliferation kit II, Roche Applied Science, Montreal, QC).
The ability of compounds of Formula I to inhibit the proliferation of human colon carcinoma HT-29 cells was tested as described above in Example 13.
Cell growth inhibition IC50 (μM) by compounds of Formula I was tested on various cancer cell types by XTT cell proliferation assay. The growth inhibitory effects of the compounds of Formula I as shown below for the melanoma cell line SK-MEL-2 were reproducible by Lorus Therapeutics Inc.

Row | IC50 | SMILES
1 | 2 µg/mL | c1ccc2c(-c3nc4c5cccnc5c5ncccc5c4[nH]3)c[nH]c2c1 [Compound 1]
2 | 0.37 µg/mL | Cn1c(-c2ccccc2)c(-c2nc3c4cccnc4c4ncccc4c3[nH]2)c2ccccc21 [Compound 18]
3 | 3.5 µg/mL | Cc1[nH]c2ccc([N+](=O)[O-])cc2c1-c1nc2c3cccnc3c3ncccc3c2[nH]1 [Compound 38]
4 | 0.45 µg/mL | CC(C)(C)c1[nH]c2ccccc2c1-c1nc2c3cccnc3c3ncccc3c2[nH]1 [Compound 39]
5 | 0.31 µg/mL | Clc1ccc(-c2[nH]c3ccccc3c2-c2nc3c4cccnc4c4ncccc4c3[nH]2)cc1 [Compound 42]
6 | >5-25< μg/ml | Cc1c(-c2nc3c4cccnc4c4ncccc4c3[nH]2)c2ccccc2n1CC(=O)N1CCCC1 [Compound 43]
7 | >5-25<, μg/ml | O=C(Cn1cc(-c2nc3c4cccnc4c4ncccc4c3[nH]2)c2ccccc21)N1CCOCC1 [Compound 44]
8 | 7 µg/mL | O=C(Cn1cc(-c2nc3c4cccnc4c4ncccc4c3[nH]2)c2ccccc21)N1CCCCCC1 [Compound 45]
9 | >5-25< μg/ml | O=C(Cn1cc(-c2nc3c4cccnc4c4ncccc4c3[nH]2)c2ccccc21)N1CCCC1 [Compound 46]
10 | 5 µg/mL | O=C(Cn1cc(-c2nc3c4cccnc4c4ncccc4c3[nH]2)c2ccccc21)N1CCCCC1 [Compound 47]
11 | >5-25< μg/ml | O=C(Cn1cc(-c2nc3c4cccnc4c4ncccc4c3[nH]2)c2cc(Br)ccc21)N1CCCC1 [Compound 49]
12 | 2.3 µg/mL | CC1CCCC(C)N1C(=O)Cn1cc(-c2nc3c4cccnc4c4ncccc4c3[nH]2)c2ccccc21 (centres unmarked) [Compound 50]
13 | 5 µg/mL | CC1CCN(C(=O)Cn2cc(-c3nc4c5cccnc5c5ncccc5c4[nH]3)c3ccccc32)CC1 [Compound 51]
14 | 0.19 µg/mL | CC(C)n1cc(-c2nc3c4cccnc4c4ncccc4c3[nH]2)c2ccccc21 [Compound 52]
15 | 0.19 µg/mL | c1ccc2c(c1)c(-c1nc3c4cccnc4c4ncccc4c3[nH]1)cn2C1CCCC1 [Compound 53]
16 | 0.28 µg/mL | COc1ccc2c(c1)c(-c1nc3c4cccnc4c4ncccc4c3[nH]1)cn2C(C)C [Compound 54]
17 | 2.4 µg/mL | Cc1c(-c2nc3c4cccnc4c4ncccc4c3[nH]2)c2ccccc2n1CC(=O)N1CCC(C)CC1 [Compound 55]
18 | 5 µg/mL | Cc1c(-c2nc3c4cccnc4c4ncccc4c3[nH]2)c2ccccc2n1CC(=O)N1CCCCCC1 [Compound 56]
19 | 5 µg/mL | Cc1c(-c2nc3c4cccnc4c4ncccc4c3[nH]2)c2ccccc2n1CC(=O)N1CCCCC1 [Compound 57]
20 | > | CN1CCN(C(=O)Cn2cc(-c3nc4c5cccnc5c5ncccc5c4[nH]3)c3ccccc32)CC1 [Compound 58]
21 | 0.6 µg/mL | Cn1c(N2CCOCC2)c(-c2nc3c4cccnc4c4ncccc4c3[nH]2)c2ccccc21 [Compound 59]
22 | 0.4 µg/mL | CC(C)c1ccc2[nH]c(C(C)(C)C)c(-c3nc4c5cccnc5c5ncccc5c4[nH]3)c2c1 [Compound 61]
23 | <0.1 µg/mL | Cc1cccc2c(-c3nc4c5cccnc5c5ncccc5c4[nH]3)c(C(C)(C)C)[nH]c12 [Compound 62]

Row | IC50 | SMILES
24 | 0.35 µg/mL | CC(C)(C)c1[nH]c2ccc(F)cc2c1-c1nc2c3cccnc3c3ncccc3c2[nH]1 [Compound 65]
25 | 0.4 µg/mL | CC(C)(C)c1[nH]c2c(F)cc(F)cc2c1-c1nc2c3cccnc3c3ncccc3c2[nH]1 [Compound 66]
26 | 0.34 µg/mL | CC(C)(C)c1[nH]c2ccc(-c3ccccc3)cc2c1-c1nc2c3cccnc3c3ncccc3c2[nH]1 [Compound 68]
27 | 0.35 µg/mL | Cc1ccc(C)c2c(-c3nc4c5cccnc5c5ncccc5c4[nH]3)c(C34CC5CC(CC(C5)C3)C4)[nH]c12 [Compound 70]
28 | 3 µg/mL | CC(C)(C)c1[nH]c2ccc(C#N)cc2c1-c1nc2c3cccnc3c3ncccc3c2[nH]1 [Compound 71]
29 | 0.18 µg/mL | Fc1ccc2[nH]c(C34CC5CC(CC(C5)C3)C4)c(-c3nc4c5cccnc5c5ncccc5c4[nH]3)c2c1 [Compound 72]
30 | 0.22 µg/mL | CC(C)(C)c1ccc2[nH]c(C3CCCC3)c(-c3nc4c5cccnc5c5ncccc5c4[nH]3)c2c1 [Compound 73]
31 | 0.18 µg/mL | Cc1ccccc1-c1[nH]c2ccc(C(C)(C)C)cc2c1-c1nc2c3cccnc3c3ncccc3c2[nH]1 [Compound 74]
32 | >25 µg/mL | O=S(=O)(c1ccc2[nH]c(Cl)c(-c3nc4c5cccnc5c5ncccc5c4[nH]3)c2c1)N1CCOCC1 [Compound 75]
33 | >25 µg/mL | CN(C)S(=O)(=O)c1ccc2[nH]c(Cl)c(-c3nc4c5cccnc5c5ncccc5c4[nH]3)c2c1 [Compound 76]
34 | 0.24 µg/mL | Cc1c(-c2nc3c4cccnc4c4ncccc4c3[nH]2)c2cc(F)ccc2n1Cc1ccccc1 [Compound 77]
35 | 0.38 µg/mL | c1ccc2c(-c3nc4c5cccnc5c5ncccc5c4[nH]3)c(C34CC5CC(CC(C5)C3)C4)[nH]c2c1 [Compound 78]
36 | 0.65 µg/mL | CC(C)c1[nH]c2ccccc2c1-c1nc2c3cccnc3c3ncccc3c2[nH]1 [Compound 79]
37 | 0.42 µg/mL | c1ccc2c(-c3nc4c5cccnc5c5ncccc5c4[nH]3)c(C3CCCCC3)[nH]c2c1 [Compound 80]
38 | 0.4 µg/mL | c1ccc2c(-c3nc4c5cccnc5c5ncccc5c4[nH]3)c(C3CCCC3)[nH]c2c1 [Compound 81]
39 | 0.61 µg/mL | CC(C)c1[nH]c2ccc(F)cc2c1-c1nc2c3cccnc3c3ncccc3c2[nH]1 [Compound 82]
40 | 0.1 µg/mL | Cc1ccc(F)c2c(-c3nc4c5cccnc5c5ncccc5c4[nH]3)c(C(C)(C)C)[nH]c12 [Compound 83]
41 | 0.39 µg/mL | Cc1cc(Cl)cc2c(-c3nc4c5cccnc5c5ncccc5c4[nH]3)c(C(C)(C)C)[nH]c12 [Compound 84]
42 | 0.24 µg/mL | Cc1ccc(Cl)c2c(-c3nc4c5cccnc5c5ncccc5c4[nH]3)c(C(C)(C)C)[nH]c12 [Compound 85]
43 | 0.47 µg/mL | CCc1ccc2[nH]c(C(C)(C)C)c(-c3nc4c5cccnc5c5ncccc5c4[nH]3)c2c1 [Compound 86]
44 | 0.42 µg/mL | CC(C)(C)c1[nH]c2ccc(Br)cc2c1-c1nc2c3cccnc3c3ncccc3c2[nH]1 [Compound 87]
45 | 0.38 µg/mL | CC(C)(C)c1[nH]c2c(F)cccc2c1-c1nc2c3cccnc3c3ncccc3c2[nH]1 [Compound 88]

same assay, conditions: Homo sapiens; HT-29, XTT, 6-7 days, Table 3; read-out: IC50

Row | IC50 | SMILES
46 | 1400 nM | COc1ccc2[nH]c(C)c(-c3nc4c5cccnc5c5ncccc5c4[nH]3)c2c1 [Compound 6]
47 | 180 nM | Fc1ccc(-c2[nH]c3ccccc3c2-c2nc3c4cccnc4c4ncccc4c3[nH]2)cc1 [Compound 10]

same assay, conditions: Homo sapiens; HT-29, XTT, as Example 13, Table 7; read-out: IC50

Row | IC50 | SMILES
48 | 3.5 µg/mL | Fc1ccc2[nH]cc(-c3nc4c5cccnc5c5ncccc5c4[nH]3)c2c1 [Compound 4]
49 | 1.4 µg/mL | COc1ccc2[nH]c(C)c(-c3nc4c5cccnc5c5ncccc5c4[nH]3)c2c1 [Compound 6]
50 | > 25 µg/mL | Cc1[nH]c2ccc(O)cc2c1-c1nc2c3cccnc3c3ncccc3c2[nH]1 [Compound 8]
51 | 0.18 µg/mL | Fc1ccc(-c2[nH]c3ccccc3c2-c2nc3c4cccnc4c4ncccc4c3[nH]2)cc1 [Compound 10]

system: supercoiled plasmid DNA; assay: In vitro DNA cleavage assay; assay type: biochemical; conditions: 25 μM compound, 10 μM CuSO4, 100 μM ascorbic acid, 37° C., 30 minutes
Description: Compound 3 was tested for its ability to cleave plasmid DNA in vitro in the presence of copper and the reducing agent ascorbic acid. Experiments were performed in a total of 20 μl, containing 10 mM NaH2PO4/Na2HPO4 buffer (pH 6.7), 1 μg of supercoiled plasmid DNA, 100 μM ascorbic acid, 25 μM drug compound (or vehicle), and 10 μM of CuSO4.5H20. The reaction mixture was incubated at 37° C. for 30 minutes, and 1 μl of 0.1 M EDTA was added to terminate the reaction. DNA loading buffer was added, and reactions were run at 80V for 80 minutes on a 1% agarose gel containing ethidium bromide.
To determine whether ions other than copper could suffice, DNA cleavage reactions were also carried out in the presence of zinc or iron. Reactions were performed as above, in the presence of 25 μM of CuSO4.5H20, ZnCl2, or FeCl2.4H20. […] Note that copper alone in the presence of ascorbic acid can shift the ratio of supercoiled DNA to open circular DNA.
To determine the ratios of compound to copper at which compound 3 was effective, reactions were performed as in FIG. 22A. The ratios of compound 3 to copper of 3:1, 2.5:1, 2:1, 1.5:1, and 1:1, as shown in FIG. 23 were achieved by maintaining the concentration of Cu constant at 10 μM, and varying the concentration of compound 3. The ratios of compound 3 to Cu of 1:1.5, 1:2, 1:2.5, and 1:3, were achieved by maintaining the concentration of compound 3 constant at 10 μM, and varying the concentration of copper.
Other compounds of Formula I, compounds 5, 7, 9 and 13 were also tested for their ability to cleave DNA at a ratio of 2.5:1 to copper (FIG. 23). Ratios of compound 3:copper as indicated, plus concentrations of copper in the absence of compound 3 were used in the DNA cleavage assay as described above.

Row | SMILES | cleavage of plasmid DNA
52 | c1cnc2c(c1)ccc1cccnc12 [1,10-phenanthroline (OP), 1,10-phenanthroline, reference compound] | able to cleave plasmid DNA

same assay, conditions: absence of copper or reducing agent

Row | SMILES | cleavage of plasmid DNA
53 | c1cnc2c(c1)ccc1cccnc12 [1,10-phenanthroline (OP), 1,10-phenanthroline, reference compound] | Neither compound 3 nor OP was able to cleave DNA
